Data: ChEMBL document CHEMBL3046208, “Natural and synthetic podolactones with potential use as natural herbicide models” (2000)
Calls of active or inactive are those of the source.

How the values were obtained:
Hordeum vulgare [1] = assay: Stimulation of root length of Hordeum vulgare (barley) at 0.1 mM after 5 days relative to untreated control; assay type: functional
Triticum aestivum [2] = assay: Stimulation of shoot length of Triticum aestivum (wheat) at 0.1 mM after 5 days relative to untreated control; assay type: functional
Hordeum vulgare [3] = assay: Stimulation of germination of Hordeum vulgare (barley) at 0.1 mM after 5 days relative to untreated control; assay type: functional
Triticum aestivum [4] = assay: Stimulation of root length of Triticum aestivum (wheat) at 0.1 mM after 5 days relative to untreated control; assay type: functional
Triticum aestivum [5] = assay: Stimulation of germination of Triticum aestivum (wheat) at 0.1 mM after 5 days relative to untreated control; assay type: functional
Allium cepa [6] = assay: Stimulation of root length of Allium cepa (onion) at 0.1 mM after 5 days relative to untreated control; assay type: functional
Allium cepa [7] = assay: Stimulation of shoot length of Allium cepa (onion) at 0.1 mM after 5 days relative to untreated control; assay type: functional
Allium cepa [8] = assay: Stimulation of germination of Allium cepa (onion) at 0.1 mM after 5 days relative to untreated control; assay type: functional
Solanum lycopersicum [9] = assay: Stimulation of shoot length of Solanum lycopersicum (tomato) at 0.1 mM after 5 days relative to untreated control; assay type: functional
Solanum lycopersicum [10] = assay: Stimulation of root length of Solanum lycopersicum (tomato) at 0.1 mM after 5 days relative to untreated control; assay type: functional
Solanum lycopersicum [11] = assay: Stimulation of germination of Solanum lycopersicum (tomato) at 0.1 mM after 5 days relative to untreated control; assay type: functional
Lepidium sativum [12] = assay: Stimulation of shoot length of Lepidium sativum at 0.1 mM after 5 days relative to untreated control; assay type: functional
Lepidium sativum [13] = assay: Stimulation of root length of Lepidium sativum at 0.1 mM after 5 days relative to untreated control; assay type: functional
Lactuca sativa [14] = assay: Stimulation of shoot length of Lactuca sativa cv. Roman (lettuce) at 0.1 mM after 5 days relative to untreated control; assay type: functional
Lepidium sativum [15] = assay: Stimulation of germination of Lepidium sativum at 0.1 mM after 5 days relative to untreated control; assay type: functional
Lactuca sativa [16] = assay: Stimulation of root length of Lactuca sativa cv. Roman (lettuce) at 0.1 mM after 5 days relative to untreated control; assay type: functional
Lactuca sativa [17] = assay: Stimulation of germination of Lactuca sativa cv. Roman (lettuce) at 0.1 mM after 5 days relative to untreated control; assay type: functional
Lactuca sativa [18] = assay: Stimulation of shoot length of Lactuca sativa cv. Nigra (lettuce) at 0.1 mM after 5 days relative to untreated control; assay type: functional
Lactuca sativa [19] = assay: Stimulation of root length of Lactuca sativa cv. Nigra (lettuce) at 0.1 mM after 5 days relative to untreated control; assay type: functional
Lactuca sativa [20] = assay: Stimulation of germination of Lactuca sativa cv. Nigra (lettuce) at 0.1 mM after 5 days relative to untreated control; assay type: functional
Triticum aestivum [21] = assay: Inhibition of shoot length of Triticum aestivum (wheat) at 0.1 mM after 5 days relative to untreated control; assay type: functional; settings: 120 h
Hordeum vulgare [22] = assay: Inhibition of germination of Hordeum vulgare (barley) at 0.1 mM after 5 days relative to untreated control; assay type: functional; settings: 120 h
Hordeum vulgare [23] = assay: Inhibition of root length of Hordeum vulgare (barley) at 0.1 mM after 5 days relative to untreated control; assay type: functional; settings: 120 h
Hordeum vulgare [24] = assay: Stimulation of shoot length of Hordeum vulgare (barley) at 0.1 mM after 5 days relative to untreated control; assay type: functional
Lactuca sativa [25] = assay: Inhibition of germination of Lactuca sativa cv. Nigra (lettuce) at 0.1 mM after 5 days relative to untreated control; assay type: functional; settings: 120 h
Lactuca sativa [26] = assay: Inhibition of root length of Lactuca sativa cv. Nigra (lettuce) at 0.1 mM after 5 days relative to untreated control; assay type: functional; settings: 120 h
Lactuca sativa [27] = assay: Inhibition of shoot length of Lactuca sativa cv. Nigra (lettuce) at 0.1 mM after 5 days relative to untreated control; assay type: functional; settings: 120 h
Hordeum vulgare [28] = assay: Inhibition of shoot length of Hordeum vulgare (barley) at 10 uM after 5 days relative to untreated control; assay type: functional, organism-based
Triticum aestivum [29] = assay: Inhibition of shoot length of Triticum aestivum (wheat) at 10 uM after 5 days relative to untreated control; assay type: functional, organism-based
Hordeum vulgare [30] = assay: Inhibition of root length of Hordeum vulgare (barley) at 10 uM after 5 days relative to untreated control; assay type: functional, organism-based
Allium cepa [31] = assay: Inhibition of shoot length of Allium cepa (onion) at 10 uM after 5 days relative to untreated control; assay type: functional; settings: 120 h
Triticum aestivum [32] = assay: Inhibition of root length of Triticum aestivum (wheat) at 10 uM after 5 days relative to untreated control; assay type: functional; settings: 120 h
Allium cepa [33] = assay: Inhibition of root length of Allium cepa (onion) at 10 uM after 5 days relative to untreated control; assay type: functional; settings: 120 h
Solanum lycopersicum [34] = assay: Inhibition of shoot length of Solanum lycopersicum (tomato) at 1 uM after 5 days relative to untreated control; assay type: functional; settings: 120 h
Lepidium sativum [35] = assay: Stimulation of shoot length of Lepidium sativum at 1 uM after 5 days relative to untreated control; assay type: functional
Solanum lycopersicum [36] = assay: Inhibition of root length of Solanum lycopersicum (tomato) at 1 uM after 5 days relative to untreated control; assay type: functional; settings: 120 h
Lepidium sativum [37] = assay: Stimulation of root length of Lepidium sativum at 1 uM after 5 days relative to untreated control; assay type: functional
Solanum lycopersicum [38] = assay: Inhibition of shoot length of Solanum lycopersicum (tomato) at 10 uM after 5 days relative to untreated control; assay type: functional, organism-based
Lactuca sativa [39] = assay: Inhibition of germination of Lactuca sativa cv. Roman (lettuce) at 0.1 mM after 5 days relative to untreated control; assay type: functional; settings: 120 h
Lactuca sativa [40] = assay: Inhibition of root length of Lactuca sativa cv. Roman (lettuce) at 0.1 mM after 5 days relative to untreated control; assay type: functional; settings: 120 h
Lactuca sativa [41] = assay: Inhibition of shoot length of Lactuca sativa cv. Roman (lettuce) at 0.1 mM after 5 days relative to untreated control; assay type: functional; settings: 120 h
Lepidium sativum [42] = assay: Inhibition of germination of Lepidium sativum at 0.1 mM after 5 days relative to untreated control; assay type: functional; settings: 120 h
Lepidium sativum [43] = assay: Inhibition of root length of Lepidium sativum at 0.1 mM after 5 days relative to untreated control; assay type: functional; settings: 120 h
Lepidium sativum [44] = assay: Inhibition of shoot length of Lepidium sativum at 0.1 mM after 5 days relative to untreated control; assay type: functional; settings: 120 h
Solanum lycopersicum [45] = assay: Inhibition of germination of Solanum lycopersicum (tomato) at 0.1 mM after 5 days relative to untreated control; assay type: functional; settings: 120 h
Solanum lycopersicum [46] = assay: Inhibition of root length of Solanum lycopersicum (tomato) at 0.1 mM after 5 days relative to untreated control; assay type: functional; settings: 120 h
Solanum lycopersicum [47] = assay: Inhibition of shoot length of Solanum lycopersicum (tomato) at 0.1 mM after 5 days relative to untreated control; assay type: functional; settings: 120 h
Allium cepa [48] = assay: Inhibition of germination of Allium cepa (onion) at 0.1 mM after 5 days relative to untreated control; assay type: functional; settings: 120 h
Allium cepa [49] = assay: Inhibition of root length of Allium cepa (onion) at 0.1 mM after 5 days relative to untreated control; assay type: functional; settings: 120 h
Allium cepa [50] = assay: Inhibition of shoot length of Allium cepa (onion) at 0.1 mM after 5 days relative to untreated control; assay type: functional; settings: 120 h
Triticum aestivum [51] = assay: Inhibition of germination of Triticum aestivum (wheat) at 0.1 mM after 5 days relative to untreated control; assay type: functional; settings: 120 h
Triticum aestivum [52] = assay: Inhibition of root length of Triticum aestivum (wheat) at 0.1 mM after 5 days relative to untreated control; assay type: functional; settings: 120 h
Solanum lycopersicum [53] = assay: Inhibition of root length of Solanum lycopersicum (tomato) at 10 uM after 5 days relative to untreated control; assay type: functional, organism-based
Solanum lycopersicum [54] = assay: Inhibition of germination of Solanum lycopersicum (tomato) at 10 uM after 5 days relative to untreated control; assay type: functional, organism-based
Lepidium sativum [55] = assay: Inhibition of shoot length of Lepidium sativum at 10 uM after 5 days relative to untreated control; assay type: functional, organism-based
Lepidium sativum [56] = assay: Inhibition of root length of Lepidium sativum at 10 uM after 5 days relative to untreated control; assay type: functional, organism-based
Lepidium sativum [57] = assay: Inhibition of germination of Lepidium sativum at 10 uM after 5 days relative to untreated control; assay type: functional, organism-based
Hordeum vulgare [58] = assay: Inhibition of shoot length of Hordeum vulgare (barley) at 0.1 mM after 5 days relative to untreated control; assay type: functional; settings: 120 h

CO[C@@H]1OC(=O)C=C2C1=C[C@H]1OC(=O)[C@@]3(C)CCC[C@@]2(C)[C@@H]13
-45%: inhibition at 1 µM (Solanum lycopersicum [36])
-42%: inhibition at 10 µM (Triticum aestivum [32])
-54%: inhibition at 10 µM (Allium cepa [33])
-73%: Activity (Lepidium sativum [35])
active: inhibition (Solanum lycopersicum [38]) | inhibition (Solanum lycopersicum [53]) | inhibition (Solanum lycopersicum [54]) | inhibition (Lepidium sativum [55]) | inhibition (Lepidium sativum [56]) | inhibition (Lepidium sativum [57])
-44%: inhibition at 1 µM (Solanum lycopersicum [34]) | Activity (Lepidium sativum [37])
20%: Activity (Lactuca sativa [20]) | inhibition at 100 µM (Lactuca sativa [25])
-74%: inhibition at 10 µM (Allium cepa [31])
inactive: inhibition (Hordeum vulgare [28]) | inhibition (Triticum aestivum [29]) | inhibition (Hordeum vulgare [30])
> 40%: inhibition at 100 µM (Triticum aestivum [21]) | inhibition at 100 µM (Hordeum vulgare [22]) | inhibition at 100 µM (Hordeum vulgare [23]) | inhibition at 100 µM (Lactuca sativa [26]) | inhibition at 100 µM (Lactuca sativa [27]) | inhibition at 100 µM (Lactuca sativa [39]) | inhibition at 100 µM (Lactuca sativa [40]) | inhibition at 100 µM (Lactuca sativa [41]) | inhibition at 100 µM (Lepidium sativum [42]) | inhibition at 100 µM (Lepidium sativum [43]) | inhibition at 100 µM (Lepidium sativum [44]) | inhibition at 100 µM (Solanum lycopersicum [45]) | inhibition at 100 µM (Solanum lycopersicum [46]) | inhibition at 100 µM (Solanum lycopersicum [47]) | inhibition at 100 µM (Allium cepa [48]) | inhibition at 100 µM (Allium cepa [49]) | inhibition at 100 µM (Allium cepa [50]) | inhibition at 100 µM (Triticum aestivum [51]) | inhibition at 100 µM (Triticum aestivum [52]) | inhibition at 100 µM (Hordeum vulgare [58])
>40%: Activity (Hordeum vulgare [1]) | Activity (Triticum aestivum [2]) | Activity (Hordeum vulgare [3]) | Activity (Triticum aestivum [4]) | Activity (Triticum aestivum [5]) | Activity (Allium cepa [6]) | Activity (Allium cepa [7]) | Activity (Allium cepa [8]) | Activity (Solanum lycopersicum [9]) | Activity (Solanum lycopersicum [10]) | Activity (Solanum lycopersicum [11]) | Activity (Lepidium sativum [12]) | Activity (Lepidium sativum [13]) | Activity (Lactuca sativa [14]) | Activity (Lepidium sativum [15]) | Activity (Lactuca sativa [16]) | Activity (Lactuca sativa [17]) | Activity (Lactuca sativa [18]) | Activity (Lactuca sativa [19]) | Activity (Hordeum vulgare [24])
